Data: patent publication US10024868B2, “Identification, optimization and use of shared HLA-B*0702 epitopes for immunotherapy” (Vaxon Biotech, priority 2009, dated 2018)

Experiments:
HLA-B*0702 = target: T1, HLA-B*0702 (Homo sapiens, UniProt P01889); experiment: Measurement of peptide relative affinity to HLA-B*0702 (T2-B7 cells, ME-1 mAb staining); assay type: binding; settings: for RA (Relative Affinity to HLA-B*0702): concentration inducing 20% of HLA-B*0702 expression relative to reference peptide CMV265-274, T2-B7 cells, 16 hours, 37° C.
T1 construct: expressed in transfected cells; host or cells: human T2-B7 cells (T2 transfected with HLA-B*0702)
Description: Measurement of Peptide Relative Affinity to HLA-B*0702.
The protocol used has been described previously (Rohrlich et al., 2003). Briefly, T2-B7 cells were incubated at 37° C. for 16 hours with peptides concentrations ranging from 100 μM to 0.1 μM, and then stained with ME-1 monoclonal antibody (mAb) to quantify the surface expression of HLA-B*0702. For each peptide concentration, the HLA-B*0702 specific staining was calculated as the percentage of staining obtained with 100 μM of the reference peptide CMV265-274 (R10V; RPHERNGFTV, SEQ ID NO: 172). The relative affinity (RA) was determined as: RA=(Concentration of each peptide that induces 20% of HLA-B*0702-expression/Concentration of the reference peptide that induces 20% of HLA-B*0702 expression).

[1] = tested on: T2-B7 targets loaded with peptide; experiment: CTL induction in vivo in HLA-B*0702 transgenic mice, Cr51 cytotoxic assay; settings: for Immunogenicity: X mice developed a specific response for a total of Y mice vaccinated, 100 μg peptide subcutaneously in IFA; for Native peptide cross recognition, MAGE-A A / Native peptide cross recognition, MAGE-A I / Native peptide cross recognition, MAGE-A V: X/Y mice; for Native peptide cross recognition, MAGE-A A: CTL tested against T2-B7 targets loaded with native peptide MAGE-A A; for Native peptide cross recognition, MAGE-A I: CTL tested against T2-B7 targets loaded with native peptide MAGE-A I; for Native peptide cross recognition, MAGE-A V: CTL tested against T2-B7 targets loaded with native peptide MAGE-A V; for Cross recognition of the native peptides by induced CTLs (in words): target cells loaded with native cryptic peptides; for Immunogenicity (in words): vaccinated HLA-B*0702 transgenic mice
Description: The HLA-B7 H-2 class-I knockout mice were previously described (Rohrlich et al., 2003).
CTL Induction In Vivo in HLA-B*0702 Transgenic Mice.
Mice were injected subcutaneously with 100 μg of peptide emulsified in Incomplete Freund's Adjuvant (IFA) in the presence of 150 μg of the I-A^b restricted HBVcore128 T helper epitope (TPPAYRPPNAPIL, SEQ ID NO: 173). After 11 days, 5×10^7 spleen cells were stimulated in vitro with peptide (10 μM). On day 6 of culture, the bulk responder populations were tested for specific cytotoxicity.
Targets were labelled with 100 μCi of Cr^51 for 60 min, plated in 96-well V-bottomed plates (3×10^3 cell/well in 100 μL of RPMI 1640 medium) and, when necessary, pulsed with peptides (1 μM) at 37° C. for 2 hours. Effectors were then added in the wells and incubated at 37° C. for 4 hours. Percentage of specific lysis was determined as: % Lysis=(Experimental Release−Spontaneous Release)/(Maximal Release−Spontaneous Release)×100.

In the case of APRALVETL (MAGE-A A1L9 peptide), the “Binding to HLA-B*0702 molecules (in words)” value (HLA-B*0702) is reported as “able to bind to MHC”, the “RA (Relative Affinity to HLA-B*0702)” value (HLA-B*0702) is reported as “+ ((+) 5 < RA < 10)” and the Immunogenicity [1] is reported as 6/11. The “Native peptide cross recognition, MAGE-A A” value [1] was “MAGE-A A (1/8)”, the “Native peptide cross recognition, MAGE-A I” value [1] was “MAGE-A I (0/3)” and the “Native peptide cross recognition, MAGE-A V” value [1] was “MAGE-A V (0/3)”. The “Cross recognition of the native peptides by induced CTLs (in words)” value [1] was “not able to cross-recognize the native peptides” and the “Immunogenicity (in words)” value [1] was “immunogenic”.
For “GPRALAETS (HLA-B7 restricted native peptide) [MAGE-A A]”, the “RA (Relative Affinity to HLA-B*0702)” value (HLA-B*0702) was “− ((−) means RA > 10)”.
With “GPRALIETS (HLA-B7 restricted native peptide) [MAGE-A I]” the “RA (Relative Affinity to HLA-B*0702)” value (HLA-B*0702) was “− ((−) means RA > 10)”.
For “GPRALVETL (HLA-B7 restricted optimized peptide) [MAGE-A L9]”, the Immunogenicity [1] was 18/18, the “Native peptide cross recognition, MAGE-A A” value [1] was “MAGE-A A (3/8)” and the “Native peptide cross recognition, MAGE-A I” value [1] was “MAGE-A I (3/5)”. For the same sequence, the “Native peptide cross recognition, MAGE-A V” value [1] was “MAGE-A V (4/5)”, the “Cross recognition of the native peptides by induced CTLs (in words)” value [1] was “able to recognize a target cell loaded with each of the native cryptic peptides” and the “Immunogenicity (in words)” value [1] was “strongly immunogenic”.
“GPRALVETS (HLA-B7 restricted native peptide) [MAGE-A V]” was tested, and the “RA (Relative Affinity to HLA-B*0702)” value (HLA-B*0702) was “− ((−) means RA > 10)”.
